One test addresses rat 5-HT7a receptor (Rattus norvegicus, UniProt P32305). As to the kind of experiment: Affinity for 5-HT7 receptor binding sites, radioligand binding with [3H]5-CT. The following applies: membranes of HEK-293 cells with rat 5-HT7a, 1 nM [3H]5-CT. The method in brief:
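Competition binding on membranes from HEK-293 cells stably expressing rat 5-HT7a, 135 μg protein/mL in 50 mM Tris-HCl pH 7.5, 5 mM EDTA. Incubated 60 min at RT with 1 nM [3H]5-CT and increasing compound concentrations; nonspecific binding with 10 μM 5-HT. Filtration and scintillation counting, in triplicate.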

The target in test [1] is T1, human recombinant 5-HT2C receptor (Homo sapiens, UniProt P28335).
T1 sequence (P28335 33-458): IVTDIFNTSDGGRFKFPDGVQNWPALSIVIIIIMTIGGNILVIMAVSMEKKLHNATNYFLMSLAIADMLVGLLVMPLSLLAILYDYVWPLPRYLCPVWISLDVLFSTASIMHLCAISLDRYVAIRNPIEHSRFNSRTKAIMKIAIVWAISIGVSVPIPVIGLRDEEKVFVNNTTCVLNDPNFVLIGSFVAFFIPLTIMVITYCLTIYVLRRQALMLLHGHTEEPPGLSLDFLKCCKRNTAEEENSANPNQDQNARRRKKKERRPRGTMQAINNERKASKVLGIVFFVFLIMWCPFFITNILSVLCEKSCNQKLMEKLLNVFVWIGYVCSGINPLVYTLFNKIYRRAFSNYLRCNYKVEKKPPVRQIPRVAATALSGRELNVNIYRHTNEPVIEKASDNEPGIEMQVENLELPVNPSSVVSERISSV
As to the kind of experiment: Affinity for 5HT2 receptor binding sites, h5-HT2C, [3H]mesulergine. The following applies: CHO h5-HT2C membranes.
Protocol: (§1) Sigmoidal inhibition curves were generated and fitted by nonlinear regression analysis (GraphPad Prism).
(§2) Receptor binding was performed using the human recombinant 5-HT2A (GB: X57830), 5-HT2B (GB: Z36748) and 5-HT2C (GB: M81778) receptors. The affinity of the compounds for the 3 different human 5-HT2 receptor subtypes was evaluated by competitive radioligand binding assays using [^3H]ketanserin (h5-HT2A) or [^3H]mesulergine (h5-HT2B and h5-HT2C). The assays were performed on membranes prepared from NIH3T3 stably transfected with h5-HT2A or CHO stably transfected with h5-HT2B and h5-HT2C.

In the next test the target is 5-HT2B receptor (Homo sapiens, UniProt P41595). Kind of test: Affinity for 5HT2 receptor binding sites, h5-HT2B, [3H]mesulergine. Conditions: CHO h5-HT2B membranes.
5-HT2B receptor, sequence (P41595 whole entry): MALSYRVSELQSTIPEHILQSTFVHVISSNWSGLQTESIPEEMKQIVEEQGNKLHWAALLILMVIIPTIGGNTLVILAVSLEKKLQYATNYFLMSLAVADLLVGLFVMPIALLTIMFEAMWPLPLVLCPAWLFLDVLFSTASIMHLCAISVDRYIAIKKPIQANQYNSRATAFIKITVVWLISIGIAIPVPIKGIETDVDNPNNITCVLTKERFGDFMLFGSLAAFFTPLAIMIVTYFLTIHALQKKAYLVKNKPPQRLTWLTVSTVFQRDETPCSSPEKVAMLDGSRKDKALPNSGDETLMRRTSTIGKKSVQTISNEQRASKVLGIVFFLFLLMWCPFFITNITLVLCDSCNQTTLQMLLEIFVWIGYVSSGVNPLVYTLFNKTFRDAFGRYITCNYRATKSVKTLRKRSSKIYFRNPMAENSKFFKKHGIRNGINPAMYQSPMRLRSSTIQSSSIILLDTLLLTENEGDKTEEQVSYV
In test [2] the target is human recombinant 5-HT6 receptor (Homo sapiens, UniProt P50406). Kind of test: Affinity for 5-HT6 receptor binding sites, [3H]LSD. Conditions: HEK-293 h5-HT6 membranes.
human recombinant 5-HT6 receptor, sequence (P50406 whole entry): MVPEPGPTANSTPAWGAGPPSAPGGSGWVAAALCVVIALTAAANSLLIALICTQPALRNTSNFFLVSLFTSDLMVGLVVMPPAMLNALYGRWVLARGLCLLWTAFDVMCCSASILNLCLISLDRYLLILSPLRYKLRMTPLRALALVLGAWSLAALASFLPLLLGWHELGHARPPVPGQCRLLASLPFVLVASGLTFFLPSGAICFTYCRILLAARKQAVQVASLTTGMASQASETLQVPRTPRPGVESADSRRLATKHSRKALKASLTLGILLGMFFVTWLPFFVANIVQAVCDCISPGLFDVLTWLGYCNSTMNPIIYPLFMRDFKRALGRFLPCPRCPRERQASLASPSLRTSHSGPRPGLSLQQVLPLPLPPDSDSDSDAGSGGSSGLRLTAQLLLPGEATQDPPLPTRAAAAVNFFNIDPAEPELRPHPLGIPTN
The target in another test is 5-HT2A receptor (Homo sapiens, UniProt P28223). As to the kind of experiment: Affinity for 5-HT2A receptor binding sites, radioligand binding with [3H]ketanserin. Conditions: read-out: Ki 5-HT2A, rat cortex membranes (assay 2) or NIH3T3 h5-HT2A membranes (assay 3), table does not say which.

Structures can show the parent of a compound that is named as a salt. A value given as a limit tells only on which side of the number the result lay.

rat 5-HT7a receptor, sequence (P32305 whole entry): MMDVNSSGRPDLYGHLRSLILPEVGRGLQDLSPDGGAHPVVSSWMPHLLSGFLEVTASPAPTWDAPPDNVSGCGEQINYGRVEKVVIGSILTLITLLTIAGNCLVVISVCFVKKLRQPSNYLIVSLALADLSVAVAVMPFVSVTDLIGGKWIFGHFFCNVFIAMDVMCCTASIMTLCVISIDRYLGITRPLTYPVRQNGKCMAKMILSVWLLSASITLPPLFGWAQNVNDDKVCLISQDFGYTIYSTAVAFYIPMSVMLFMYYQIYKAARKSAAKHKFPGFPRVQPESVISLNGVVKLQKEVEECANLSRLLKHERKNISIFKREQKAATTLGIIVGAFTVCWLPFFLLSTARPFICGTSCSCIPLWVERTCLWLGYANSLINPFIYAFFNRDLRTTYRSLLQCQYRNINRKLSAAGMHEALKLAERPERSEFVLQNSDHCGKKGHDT
Protocol for 5-HT2A receptor: as §1
The affinity of the compounds for the rat 5-HT2A receptor was evaluated by competitive radioligand binding assay using [^3H]ketanserine as the radioligand. […] Brain tissue (rat cortex) was homogenized in 20 volumes per wet weight tissue of Tris-HCl buffer (50 mM, pH 7.4). The total membrane fraction was collected by centrifugation and washed by subsequent centrifugation runs (25 min at 25,000 g at 4° C.). Membranes were re-suspended in Tris-HCl buffer (50 mM, pH 7.4) containing 1 nM [^3H]ketanserin. Non-specific binding was estimated in the presence of 10 μM risperidone. The incubation was terminated by rapid filtration over Whatman GF/B filters pre-soaked in 0.1% polyethylenimine, and one washing step with 1 mL ice-cold Tris-HCl buffer, pH 7.4.
Protocol for 5-HT2B receptor: as §1, §2

As usually defined, the Ki is the equilibrium dissociation constant of an inhibitor or competing ligand from its target. Regarding `CCC(C)c1nc2c(c(-c3ccc(F)cc3)n1)CNCC2` (stereo not shown) [Example 3, 2-sec-Butyl-4-(4-fluoro-phenyl)-5,6,7,8-tetrahydro-pyrido[4,3-d]pyrimidine hydrochloride], the Ki is > 10000 nM on rat 5-HT7a receptor, 1020 nM in test [1], 2250 nM on 5-HT2B receptor and > 10000 nM in test [2].
Turning to `Cc1ccc(-c2nc(Cc3ccccc3)nc3c2CNCC3)cc1` [Example 8, 2-Benzyl-4-p-tolyl-5,6,7,8-tetrahydro-pyrido[4,3-d]pyrimidine], the Ki on rat 5-HT7a receptor turned out to be 1000 nM; in test [1] it was 320 nM; at 5-HT2B receptor, 1000 nM; at 5-HT2A receptor, 20 nM; in test [2], 200 nM.
For the compound `CC(C)c1nc2c(c(-c3ccc(Cl)cc3)n1)CNCC2` [Example 29, 4-(4-Chloro-phenyl)-2-isopropyl-5,6,7,8-tetrahydro-pyrido[4,3-d]pyrimidine], the Ki at rat 5-HT7a receptor is > 10000 nM; in test [1], 2000 nM; at 5-HT2B receptor, 1600 nM; on 5-HT2A receptor, 240 nM; in test [2], > 10000 nM.
With `Fc1ccc(-c2nc(C3CCCC3)nc3c2CCNCC3)cc1` [Example 46, 2-Cyclopentyl-4-(4-fluoro-phenyl)-6,7,8,9-tetrahydro-5H-pyrimido[4,5-d]azepine], the Ki at rat 5-HT7a receptor was determined as 120 nM; in test [1] it was 200 nM; at 5-HT2B receptor, 30 nM; on 5-HT2A receptor it was 14 nM; in test [2], 100 nM.
Take `Cc1ccc(-c2nc(C3CCCC3)nc3c2CCNCC3)cc1` [Example 47, 2-Cyclopentyl-4-p-tolyl-6,7,8,9-tetrahydro-5H-pyrimido[4,5-d]azepine]: the Ki at rat 5-HT7a receptor came out at 30 nM; in test [1], 22 nM; at 5-HT2B receptor, 1 nM; in test [2] it was 12 nM.
For `COc1ccc(-c2nc(C3CCCC3)nc3c2CCNCC3)cc1` [Example 48, 2-Cyclopentyl-4-(4-methoxy-phenyl)-6,7,8,9-tetrahydro-5H-pyrimido[4,5-d]azepine], the Ki on rat 5-HT7a receptor was 40 nM; in test [1], 100 nM; on 5-HT2B receptor, 3 nM; at 5-HT2A receptor, 20 nM; in test [2], 24 nM.
As to `N#Cc1ccc(-c2nc(C3CCCC3)nc3c2CCNCC3)cc1` [Example 49, 4-(2-Cyclopentyl-6,7,8,9-tetrahydro-5H-pyrimido[4,5-d]azepin-4-yl)-benzonitrile], the Ki at rat 5-HT7a receptor was 300 nM; in test [1] it was 400 nM; at 5-HT2B receptor it was 25 nM; on 5-HT2A receptor it was 50 nM; in test [2], 200 nM.
In the case of `Fc1ccc(-c2nc(Cc3ccccc3)nc3c2CCNCC3)cc1` [Example 54, 2-Benzyl-4-(4-fluoro-phenyl)-6,7,8,9-tetrahydro-5H-pyrimido[4,5-d]azepine], the Ki at rat 5-HT7a receptor turned out to be 5000 nM; in test [1], 20 nM; at 5-HT2B receptor it was 30 nM; at 5-HT2A receptor it was 0.55 nM; in test [2], 30 nM.
As to `Cc1ccc(-c2nc(Cc3ccccc3)nc3c2CCNCC3)cc1` [Example 55, 2-Benzyl-4-p-tolyl-6,7,8,9-tetrahydro-5H-pyrimido[4,5-d]azepine], the Ki on rat 5-HT7a receptor worked out at 35 nM; in test [1], 16 nM; on 5-HT2B receptor, 2.5 nM; at 5-HT2A receptor it was 0.42 nM; in test [2], 8.5 nM.
Turning to `FC(F)(F)c1ccc(-c2nc(Cc3ccccc3)nc3c2CCNCC3)cc1` [Example 56, 2-Benzyl-4-(4-trifluoromethyl-phenyl)-6,7,8,9-tetrahydro-5H-pyrimido[4,5-d]azepine], the Ki came out at 180 nM on rat 5-HT7a receptor; 38 nM in test [1]; 22 nM at 5-HT2B receptor; 0.8 nM on 5-HT2A receptor; 30 nM in test [2].
Taken in the same sequence, the figures for `CN1CCc2nc(C3CCCC3)nc(-c3ccc(F)cc3)c2CC1` [Example 58, 2-Cyclopentyl-4-(4-fluoro-phenyl)-7-methyl-6,7,8,9-tetrahydro-5H-pyrimido[4,5-d]azepine] were > 10000 nM, 30 nM, 40 nM, 2 nM and 100 nM.
With `Cc1ccc(-c2nc(C3CCCC3)nc3c2CCN(C)CC3)cc1` [Example 59, 2-Cyclopentyl-7-methyl-4-p-tolyl-6,7,8,9-tetrahydro-5H-pyrimido[4,5-d]azepine], the Ki on rat 5-HT7a receptor turned out to be 100 nM; in test [1], 29 nM; at 5-HT2B receptor it was 7.8 nM; at 5-HT2A receptor it was 1.5 nM; in test [2], 20 nM.
Regarding `COc1ccc(-c2nc(C3CCCC3)nc3c2CCN(C)CC3)cc1` [Example 60, 2-Cyclopentyl-4-(4-methoxy-phenyl)-7-methyl-6,7,8,9-tetrahydro-5H-pyrimido[4,5-d]azepine], the Ki at rat 5-HT7a receptor worked out at 400 nM; in test [1] it was 60 nM; at 5-HT2B receptor, 10 nM; on 5-HT2A receptor it was 6 nM; in test [2] it was 60 nM.
Take `Cc1ccc(-c2nc(Cc3ccccc3)nc3c2CCN(C)CC3)cc1` [Example 61, 2-Benzyl-7-methyl-4-p-tolyl-6,7,8,9-tetrahydro-5H-pyrimido[4,5-d]azepine]: the Ki on rat 5-HT7a receptor amounted to 250 nM; in test [1], 35 nM; on 5-HT2B receptor, 15 nM; at 5-HT2A receptor it was 1.9 nM; in test [2], 20 nM.
Regarding `CC(C)c1nc2c(c(-c3ccc(F)cc3)n1)CCCNC2` [Example 65, 4-(4-Fluoro-phenyl)-2-isopropyl-6,7,8,9-tetrahydro-5H-pyrimido[4,5-c]azepine hydrochloride], the Ki was > 10000 nM on rat 5-HT7a receptor; 570 nM in test [1]; 300 nM on 5-HT2B receptor; 20 nM on 5-HT2A receptor; > 10000 nM in test [2].
As to `Fc1ccc(-c2nc(Cc3ccccc3)nc3c2CNCCC3)cc1` [Example 69, 2-Benzyl-4-(4-fluoro-phenyl)-6,7,8,9-tetrahydro-5H-1,3,6-triaza-benzocycloheptene hydrochloride], the Ki at rat 5-HT7a receptor is > 10000 nM; in test [1] it was 650 nM; at 5-HT2B receptor, > 10000 nM; in test [2], 7100 nM.
Consider `Fc1ccc(-c2nc(Cc3ccccc3)nc3c2CCN(Cc2ccccc2)C3)cc1` [Example 70, 2,7-Dibenzyl-4-(4-fluoro-phenyl)-5,6,7,8-tetrahydro-pyrido[3,4-d]pyrimidine hydrochloride], for which the Ki was > 10000 nM at rat 5-HT7a receptor; 3730 nM in test [1]; > 10000 nM on 5-HT2B receptor; 117 nM on 5-HT2A receptor; 250 nM in test [2].
Regarding `Cc1ccc(-c2nc(Cc3ccccc3)nc3c2CCN(Cc2ccccc2)C3)cc1` [Example 71, 2,7-Dibenzyl-4-p-tolyl-5,6,7,8-tetrahydro-pyrido[3,4-d]pyrimidine], the Ki at rat 5-HT7a receptor is > 10000 nM; in test [1], 3580 nM; on 5-HT2B receptor, 4330 nM; on 5-HT2A receptor, 1030 nM; in test [2] it was 300 nM.
Take `Cc1ccc(-c2nc(Cc3ccccc3)nc3c2CCNC3)cc1` [Example 77, 2-Benzyl-4-p-tolyl-5,6,7,8-tetrahydro-pyrido[3,4-d]pyrimidine hydrochloride]: the Ki was 22 nM on rat 5-HT7a receptor; 130 nM in test [1]; 200 nM at 5-HT2B receptor; 15 nM on 5-HT2A receptor; 400 nM in test [2].
For the compound `CC(C)c1nc2c(c(-c3ccc(F)cc3)n1)CCNC2` [Example 80, 4-(4-Fluoro-phenyl)-2-isopropyl-5,6,7,8-tetrahydro-pyrido[3,4-d]pyrimidine hydrochloride], the Ki on rat 5-HT7a receptor is > 10000 nM; in test [1], 940 nM; at 5-HT2B receptor it was 158 nM; on 5-HT2A receptor, 11 nM; in test [2], 2800 nM.
Take `CC(C)N1CCc2c(nc(Cc3ccccc3)nc2-c2ccc(F)cc2)C1` [Example 83, 2-Benzyl-4-(4-fluoro-phenyl)-7-isopropyl-5,6,7,8-tetrahydro-pyrido[3,4-d]pyrimidine]: the Ki at rat 5-HT7a receptor was > 10000 nM; in test [1] it was 300 nM; on 5-HT2B receptor, 1000 nM; on 5-HT2A receptor, 30 nM; in test [2] it was 230 nM.
In the case of `Cc1ccc(-c2nc(C(C)C)nc3c2CNCC3C)cc1` (stereo not shown) [Example 102, 2-Isopropyl-8-methyl-4-p-tolyl-5,6,7,8-tetrahydro-pyrido[4,3-d]pyrimidine hydrochloride], the Ki at rat 5-HT7a receptor was > 10000 nM; in test [1], 230 nM; on 5-HT2B receptor, 150 nM; on 5-HT2A receptor, 20 nM; in test [2] it was 370 nM.
Take `CC(C)c1nc2c(c(-c3ccc(F)cc3)n1)CCC(N1CCCC1)C2` (stereo not shown) [Example 107, 4-(4-Fluoro-phenyl)-2-isopropyl-7-pyrrolidin-1-yl-5,6,7,8-tetrahydro-quinazoline]: the Ki on rat 5-HT7a receptor is > 10000 nM; in test [1], 500 nM; on 5-HT2B receptor, 275 nM; on 5-HT2A receptor it was 12 nM; in test [2] it was 4000 nM.

The values above are taken from patent US7598255B2 (Janssen Pharmaceutica NV, priority 2005, dated 2009).
